According to PubChem BioAssay (NCI):
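Method: 48-hour compound exposure of cells in 96-well plates, five concentrations, linear interpolation of endpoints. GI50 = concentration required for 50% inhibition of growth. TGI is the concentration that stops growth completely.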

Tests used:
Assay in all cases: DTP human tumour cell line panel, 48 h
DU-145 prostate = system: DU-145 prostate
NCI/ADR-RES ovarian = system: NCI/ADR-RES ovarian
T-47D breast = system: T-47D breast
PC-3 prostate = system: PC-3 prostate
HT29 colon = system: HT29 colon
A498 renal = system: A498 renal
COLO 205 colon = system: COLO 205 colon
RXF 393 renal = system: RXF 393 renal
RPMI-8226 leukemia = system: RPMI-8226 leukemia
MALME-3M melanoma = system: MALME-3M melanoma

Row | Compound | TGI (DU-145 prostate) | TGI (NCI/ADR-RES ovarian) | TGI (T-47D breast) | TGI (PC-3 prostate) | TGI (HT29 colon) | TGI (A498 renal) | TGI (COLO 205 colon) | TGI (RXF 393 renal) | TGI (RPMI-8226 leukemia) | TGI (MALME-3M melanoma) | GI50 (DU-145 prostate) | GI50 (MALME-3M melanoma) | GI50 (NCI/ADR-RES ovarian) | GI50 (T-47D breast) | GI50 (PC-3 prostate) | GI50 (A498 renal) | GI50 (COLO 205 colon) | GI50 (RXF 393 renal) | GI50 (RPMI-8226 leukemia) | GI50 (HT29 colon)
1 | O=c1c2ccccc2nc(-c2ccc(Cl)cc2)n1O | > 100 µM | 58.2 µM | > 100 µM | > 100 µM | > 100 µM | > 100 µM | > 100 µM | > 100 µM | > 100 µM |  |  |  |  |  |  |  |  |  |  | 
2 | CCN(CCCl)CCNc1c2ccccc2nc2ccc(OC)cc12 |  | 12.8 µM |  |  | 2.13 µM | 6.64 µM | 1.82 µM | 1.97 µM | 1.37 µM | 2.31 µM |  |  |  |  |  |  |  |  |  | 
3 | CCCNc1nc(-c2ccc(OC)cc2)nc2ccccc12 | 32.2 µM | 36.2 µM | > 100 µM | 46.5 µM |  | 25 µM | > 100 µM | 35.5 µM | 22.6 µM | 29.3 µM | 14.3 µM | 15.1 µM | 11 µM | 31.4 µM | 14.9 µM | 11.9 µM | 19.9 µM | 15.4 µM | 3.96 µM | 
4 | O=C1C(c2ccccc2)=C(c2ccccc2)C(c2ccccc2)/C1=C1\C(=O)C(c2ccccc2)=C(c2ccccc2)C1c1ccccc1 (stereo unspecified) |  |  |  |  | > 100 µM | > 100 µM | > 100 µM | > 100 µM | > 100 µM | > 100 µM |  |  |  |  |  |  |  |  |  | 
5 | CC(CN(CP(=O)([O-])[O-])CP(=O)([O-])[O-])N(CP(=O)([O-])[O-])CP(=O)([O-])[O-].N[C@@H]1CCCC[C@@H]1N.[Pt+2] (stereo unspecified) |  |  |  |  | > 100 µM | > 100 µM | > 100 µM | > 100 µM | > 100 µM | > 100 µM |  | > 100 µM |  |  |  | > 100 µM | > 100 µM | > 100 µM | > 100 µM | > 100 µM
6 | O=S1(=O)CSc2ccc3ccccc3c2-c2c1ccc1ccccc21 |  |  |  |  | > 100 µM |  | > 100 µM | > 100 µM |  | > 100 µM |  |  |  |  |  |  |  |  |  | 
7 | CC(=O)O[C@H]1CC[C@@]2(C)C(=CC[C@@H]3C2CC[C@]2(C)Nc4oncc4CC32)C1 (stereo partly specified) |  |  |  |  | > 100 µM | > 100 µM |  | > 100 µM | 43.8 µM | 82.2 µM |  |  |  |  |  |  |  |  |  | 
8 | CCOC(=O)C(=Cc1ccccc1Br)C(=O)OCC | 2.68 µM | > 100 µM |  | 14.9 µM | 10.9 µM | 5.07 µM | 6.77 µM | 4.97 µM | > 100 µM | 8.26 µM |  |  |  |  |  |  |  |  |  | 
9 | CC1SC(c2cccs2)N(NC(=O)C(O)c2ccccc2)C1=O (stereo unspecified) | > 100 µM |  | > 100 µM | > 100 µM | > 100 µM | > 100 µM | > 100 µM | > 100 µM | > 100 µM | > 100 µM | > 100 µM | > 100 µM |  | > 100 µM | > 100 µM | > 100 µM | > 100 µM | > 100 µM | > 100 µM | > 100 µM
10 | Cc1cc2c(=O)cc(-c3ccc(Cl)cc3)oc2c(C(=O)O)c1C |  |  |  |  | > 100 µM |  | > 100 µM | > 100 µM | > 100 µM | > 100 µM |  |  |  |  |  |  |  |  |  | 
11 | CCCCOC(=O)N[C@H]1CCc2cc(OC)c(OC)c(OC)c2-c2ccc(SC)c(=O)cc21 | < 0.01 µM |  | 58.7 µM | > 81 µM | < 0.0281 µM | 27.6 µM | < 0.01 µM | 2.07 µM | 17.1 µM | 46.6 µM |  |  |  |  |  |  |  |  |  | 
12 | CO/N=C1/c2cc(OC)ccc2-c2c(NOC)nc3ccccc3c21 | > 100 µM | > 100 µM | > 100 µM | 88.2 µM | > 100 µM | 36.9 µM | > 100 µM |  | > 100 µM | 23.7 µM | 29.2 µM | 0.103 µM | 53 µM | 41.2 µM | 21.3 µM | 16.1 µM | 41.3 µM |  | 40.6 µM | 42 µM
13 | N#CC(C#N)=C1NC(=O)C(c2ccccc2)C(=O)N1 (stereo unspecified) |  |  |  |  | > 100 µM | > 100 µM | > 100 µM | > 100 µM | > 100 µM | > 100 µM |  |  |  |  |  |  |  |  |  | 
14 | CCCCCCCCSC1=CC(=O)C(OC)=C(OC)C1=O | 20.5 µM | 7.1 µM |  | 23.3 µM | 12.6 µM | 20.4 µM | 14.6 µM | 3.46 µM | > 100 µM | 4.44 µM | 7.23 µM | 1.96 µM | 2.49 µM |  | 6.24 µM | 6.13 µM | 4.17 µM | 1.61 µM | 1.27 µM | 3.75 µM
15 | CCN1C(=O)N(c2c(F)c(OC)cc(OC)c2F)Cc2cnc3[nH]c(CN4CCOCC4)cc3c21 | > 100 µM | > 100 µM | 25 µM | > 100 µM | > 100 µM |  | > 100 µM | 8.08 µM | > 100 µM | 20.2 µM | 1.99 µM | 1.45 µM | 4.48 µM | 3.04 µM | 4.34 µM |  | 3.15 µM | 0.394 µM | 3.79 µM | 2.84 µM
16 | CCOc1ccc(NC(=O)C2=C(C)NC(C)=C(C(=O)Nc3ccc(OCC)cc3)C2c2ccc([N+](=O)[O-])cc2)cc1 |  |  |  |  | 86 µM | 66.2 µM | 53.3 µM | > 100 µM | 64.2 µM | > 100 µM |  |  |  |  |  |  |  |  |  | 
17 | Cn1cc(C(=O)C2CCCCC2)ccc1=O |  |  |  |  | > 100 µM |  | > 100 µM | > 100 µM | > 100 µM | > 100 µM |  |  |  |  |  |  |  |  |  | 
18 | Cc1cc(Cl)ccc1N1C(=O)C(=O)C(c2nc3ccccc3s2)C(=O)C1=O |  |  |  |  | > 100 µM | > 100 µM | > 100 µM |  | > 100 µM | > 100 µM |  |  |  |  |  |  |  |  |  | 
19 | C[Si](C)(C)/C(Br)=C\CCN1C(=O)CCC1O (stereo unspecified) |  |  |  |  | > 100 µM | > 100 µM | > 100 µM | > 100 µM | > 100 µM | > 100 µM |  |  |  |  |  |  |  |  |  | 
20 | CC(C)(C)c1cc(C(O)(C(F)(F)F)C(F)(F)F)c2c(c1)C(C(F)(F)F)(C(F)(F)F)OC(c1ccccc1)(C(C)(C)C)N2 (stereo unspecified) |  |  |  |  | 14.4 µM |  | 16.1 µM | 12.3 µM | 12.1 µM | 27.6 µM |  |  |  |  |  |  |  |  |  | 
21 | NS(=O)(=O)c1ccc(-n2nc(-c3ccc(Cl)cc3)cc2C2=CC(=O)C=CC2=O)cc1 | 87.5 µM | 63.5 µM |  | 56.2 µM |  | 70.2 µM |  | 46.7 µM | 33.4 µM |  | 23.7 µM |  | 27.2 µM |  | 19.4 µM | 22.8 µM |  | 21.9 µM | 6.86 µM | 
